Assay results taken from publication PMC10641276 (Saudi Pharmaceutical Journal : SPJ, 2023).

Molecular target: thymidine phosphorylase (Escherichia coli, UniProt P07650)
Assay type: biochemical
Conditions: thymidine phosphorylase inhibition versus standard drug (7-deazaxanthine)

Chain of thymidine phosphorylase (P07650 whole entry): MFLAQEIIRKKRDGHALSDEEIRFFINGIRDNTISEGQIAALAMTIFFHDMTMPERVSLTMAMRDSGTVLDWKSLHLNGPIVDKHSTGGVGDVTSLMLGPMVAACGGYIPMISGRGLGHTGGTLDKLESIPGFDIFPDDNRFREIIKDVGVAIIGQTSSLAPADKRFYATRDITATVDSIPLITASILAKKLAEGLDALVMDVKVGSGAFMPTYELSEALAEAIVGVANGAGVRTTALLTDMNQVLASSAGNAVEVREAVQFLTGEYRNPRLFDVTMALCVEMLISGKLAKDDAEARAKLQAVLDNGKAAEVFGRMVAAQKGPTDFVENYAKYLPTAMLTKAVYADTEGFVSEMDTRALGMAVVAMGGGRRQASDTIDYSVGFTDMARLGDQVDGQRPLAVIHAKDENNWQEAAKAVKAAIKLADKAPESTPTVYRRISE

Compound	potency compared with standard drug
C(=N\c1nnc(-c2cccc(-c3nnc(/N=C/c4ccc(-c5ccccc5)cc4)s3)n2)s1)/c1ccc(-c2ccccc2)cc1 [4e, (1E,1'E)-N,N'-(pyridine-2,6-diylbis(1,3,4-thiadiazole-5,2-diyl))bis(1-([1,1'-biphenyl]-4-yl)methanimine)]	less potent than the standard drug
CN(C)c1ccc(/C=N/c2nnc(-c3cccc(-c4nnc(/N=C/c5ccc(N(C)C)cc5)s4)n3)s2)cc1 [4i, 4,4'-((1E,1'E)-((pyridine-2,6-diylbis(1,3,4-thiadiazole-5,2-diyl))bis(azanylylidene))bis(methanylylidene))bis(N,N-dimethylaniline)]	less potent than the standard drug
Cc1ccc(-c2ccc(/C=N/c3nnc(-c4cccc(-c5nnc(/N=C/c6ccc(-c7ccc(C)cc7)cc6)s5)n4)s3)cc2)cc1 [4n, (1E,1'E)-N,N'-(pyridine-2,6-diylbis(1,3,4-thiadiazole-5,2-diyl))bis(1-(4'-methyl-[1,1'-biphenyl]-4-yl)methanimine)]	less potent than the standard drug
